The values below come from patent US10428051B2 (priority 2015, dated 2019).

One experiment deals with human σ1 receptor (Homo sapiens, UniProt Q99720). Nature of the experiment: biochemical. Type of experiment: binding. More on the design: μ and σ1 dual (binding to the σ1 receptor and the μ-opioid receptor expressed as Ki): key to the marks not given beside the values.
Sequence of human σ1 receptor (Q99720 whole entry): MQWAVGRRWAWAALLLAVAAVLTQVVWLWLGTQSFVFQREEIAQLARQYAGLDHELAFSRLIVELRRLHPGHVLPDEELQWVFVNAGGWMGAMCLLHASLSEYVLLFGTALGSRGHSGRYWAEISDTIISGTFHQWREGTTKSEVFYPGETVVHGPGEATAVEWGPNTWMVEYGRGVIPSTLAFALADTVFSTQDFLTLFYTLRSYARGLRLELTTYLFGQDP
Conditions: not given
Compound `CCC(=O)N(CC1(N2CCN(Cc3ccccc3)CC2)CCOCC1)c1cccc(F)c1` [Example 5, N-((4-(4-benzylpiperazin-1-yl)tetrahydro-2H-pyran-4-yl)methyl)-N-(3-fluorophenyl)propionamide] came in with an inhibition constant (Ki) of less than 100 nM. Regarding `CC(=O)N(CC1(N2CCN(CC(C)C)CC2)CCOCC1)c1cccc(C(F)(F)F)n1` [Example 40, N-((4-(4-isobutylpiperazin-1-yl)tetrahydro-2H-pyran-4-yl)methyl)-N-(6-(trifluoromethyl)pyridin-2-yl)acetamide], the “μ and σ1 dual (binding to the σ1 receptor and the μ-opioid receptor expressed as Ki)” value (from here on “μ and σ1 dual”) was “++”. Take `CCC(=O)N(CC)CC1(N2CCN(Cc3ccccc3)CC2)CCOCC1` [Example 99, N-((4-(4-benzylpiperazin-1-yl)tetrahydro-2H-pyran-4-yl)methyl)-N-ethylpropionamide]: the “μ and σ1 dual” value is “++”. Still for that read-out and setting: then `CCC(=O)N(CC1(N2CCN(CC(C)C)CC2)CCOCC1)c1ncccc1C(F)(F)F` [Example 63, N-((4-(4-isobutylpiperazin-1-yl)tetrahydro-2H-pyran-4-yl)methyl)-N-(3-(trifluoromethyl)pyridin-2-yl)propionamide], with “++”; and `CCC(=O)N(CC1(N2CCN(CC(=O)N3CCCCC3)CC2)CC1)c1ccccc1` [Example 132, N-((1-(4-(2-oxo-2-(piperidin-1-yl)ethyl)piperazin-1-yl)cyclopropyl)methyl)-N-phenylpropionamide], with “++”; and `CCC(=O)N(CC1(N2CCN(Cc3ccncc3)CC2)CCOCC1)c1ccccc1` [Example 106, N-phenyl-N-((4-(4-(pyridin-4-ylmethyl)piperazin-1-yl)tetrahydro-2H-pyran-4-yl)methyl)propionamide], with “++”. For `CCC(=O)N(CC1(N2CCN(CC(C)(C)OC)CC2)CCOCC1)c1cccc(C(F)(F)F)n1` [Example 191, N-((4-(4-(2-Methoxy-2-methylpropyl)piperazin-1-yl)tetrahydro-2H-pyran-4-yl)methyl)-N-(6-(trifluoromethyl)pyridin-2-yl)propionamide], the inhibitory constant (Ki) is greater than 500 nM. `CCC(=O)N(CC1(N2CCN(Cc3ccccc3)CC2)CCOCC1)c1cccc(C#N)c1` [Example 57, N-((4-(4-benzylpiperazin-1-yl)tetrahydro-2H-pyran-4-yl)methyl)-N-(3-cyanophenyl)propionamide]: the “μ and σ1 dual” value is reported as “++”. As for `CCC(=O)N(CC1(N2CCN(Cc3ccccc3)CC2)CCOCC1)c1cncc(C(F)(F)F)c1` [Example 9, N-((4-(4-benzylpiperazin-1-yl)tetrahydro-2H-pyran-4-yl)methyl)-N-(5-(trifluoromethyl)pyridin-3-yl)propionamide], the “μ and σ1 dual” value is “++”. `CCC(=O)N(CC1(N2CCN(Cc3ccccc3)CC2)CCOCC1)c1ncccc1C(F)(F)F` [Example 59, N-((4-(4-benzylpiperazin-1-yl)tetrahydro-2H-pyran-4-yl)methyl)-N-(3-(trifluoromethyl)pyridin-2-yl)propionamide] showed an inhibition constant (Ki) of less than 500 nM.

`CC(C)(CN(C(=O)c1ccco1)c1ccccc1)N1CCN(CCc2ccccc2)CC1` [Example 44, N-(2-methyl-2-(4-phenethylpiperazin-1-yl)propyl)-N-phenylfuran-2-carboxamide] showed a Ki of less than 100 nM.

`CCNC(=O)N(CC1(N2CCN(Cc3ccccc3)CC2)CCOCC1)c1ccccn1` [Example 49, 1-((4-(4-benzylpiperazin-1-yl)tetrahydro-2H-pyran-4-yl)methyl)-3-ethyl-1-(pyridin-2-yl)urea]: the “μ and σ1 dual” value was “++”.

Consider `CCC(=O)N(CC1(N2CCN(CCC(C)C)CC2)CCOC(C)(C)C1)c1cccc(C(F)(F)F)n1` (centres unmarked) [Example 159, N-((4-(4-isopentylpiperazin-1-yl)-2,2-dimethyltetrahydro-2H-pyran-4-yl)methyl)-N-(6-(trifluoromethyl)pyridin-2-yl)propionamide], for which the Ki is less than 100 nM. On the same count and under the same terms, to `CCC(=O)N(CC1(N2CCN(CC(=O)N3CCCCC3)CC2)CCOCC1)c1ccccc1` [Example 127, N-((4-(4-(2-oxo-2-(piperidin-1-yl)ethyl)piperazin-1-yl)tetrahydro-2H-pyran-4-yl)methyl)-N-phenylpropionamide] belongs greater than 500 nM; to `CCC(=O)N(CC1(N2CCN(CCO)CC2)CCOCC1)c1cccc(C(F)(F)F)n1` [Example 148, N-((4-(4-(2-hydroxyethyl)piperazin-1-yl)tetrahydro-2H-pyran-4-yl)methyl)-N-(6-(trifluoromethyl)pyridin-2-yl)propionamide], greater than 500 nM; to `CCC(=O)N(CC1(N2CCN(CC(C)C)CC2)CCOC(C)(C)C1)c1cccc(C(F)(F)F)n1` (centres unmarked) [Example 160, N-((4-(4-isobutylpiperazin-1-yl)-2,2-dimethyltetrahydro-2H-pyran-4-yl)methyl)-N-(6-(trifluoromethyl)pyridin-2-yl)propionamide], less than 500 nM.

Compound `CCC(=O)N(CC1(N2CCN(CC(C)C)CC2)CC1)c1cccc(C(F)(F)F)n1` [Example 123, N-((1-(4-isobutylpiperazin-1-yl)cyclopropyl)methyl)-N-(6-(trifluoromethyl)pyridin-2-yl)propionamide] registered a Ki of less than 100 nM. The same measure, in the same setting: then `CCC(=O)N(CC1(N2CCN(CCC(C)C)CC2)CCOCC1)c1cccc(C(F)(F)F)n1` [Example 137, N-((4-(4-isopentylpiperazin-1-yl)tetrahydro-2H-pyran-4-yl)methyl)-N-(6-(trifluoromethyl)pyridin-2-yl)propionamide], with less than 100 nM.

`CCC(=O)N(CC1(N2CCN(C(C)COC)CC2)CCOCC1)c1cccc(C(F)(F)F)n1` (centres unmarked) [Example 112, N-((4-(4-(1-methoxypropan-2-yl)piperazin-1-yl)tetrahydro-2H-pyran-4-yl)methyl)-N-(6-(trifluoromethyl)pyridin-2-yl)propionamide]: the “μ and σ1 dual” value is reported as “++”.

`CCC(=O)N(CC1(N2CCN(Cc3cncc(F)c3)CC2)CC1)c1ccccc1` [Example 122, N-((1-(4-((5-fluoropyridin-3-yl)methyl)piperazin-1-yl)cyclopropyl)methyl)-N-phenylpropionamide] returned a Ki of less than 500 nM. Still for that read-out and setting: then `CCC(=O)N(CC1(N2CCN(CC(C)C)CC2)CCOC(C)(C)C1)c1cccc(C#N)n1` (centres unmarked) [Example 87, N-(6-cyanopyridin-2-yl)-N-((4-(4-isobutylpiperazin-1-yl)-2,2-dimethyltetrahydro-2H-pyran-4-yl)methyl)propionamide], with greater than 500 nM; and `CCC(=O)N(CC1(N2CCN(CC(C)C)CC2)CCOC(C)(C)C1)c1ccccn1` (centres unmarked) [Example 166, N-((4-(4-isobutylpiperazin-1-yl)-2,2-dimethyltetrahydro-2H-pyran-4-yl)methyl)-N-(pyridin-2-yl)propionamide], with greater than 500 nM.

Staying with this experiment, now noted: read-out: μ and σ1 dual (binding to the σ1 receptor and the μ-opioid receptor expressed as Ki).
`CCOCCN1CC2CN(C3(CN(C(=O)CC)c4cccc(C(F)(F)F)n4)CCOCC3)CC2C1` (centres unmarked) [Example 200, N-((4-(5-(2-ethoxyethyl)hexahydropyrrolo[3,4-c]pyrrol-2(1H)-yl)tetrahydro-2H-pyran-4-yl)methyl)-N-(6-(trifluoromethyl)pyridin-2-yl)propionamide]: the Ki is greater than 500 nM.

In general, Ki refers to a dissociation constant, usually derived from enzyme kinetics or from competition with a known ligand.
